The source of these data is patent publication US11976083B2, “Inhibitors of peptidylarginine deiminases” (Gilead Sciences, Inc., priority 2020, dated 2024).

By IC50 is commonly meant the concentration needed to halve the response being measured.

This test deals with T1, human PAD4 (Homo sapiens, UniProt Q9UM07).
T1 construct: human PAD4 (NM_012387), A2-P663, was PCR amplified; His-SUMO (N, cleaved yes); made in house; host or cells: E. coli BL21(DE3)
T1 sequence (Q9UM07 2-663): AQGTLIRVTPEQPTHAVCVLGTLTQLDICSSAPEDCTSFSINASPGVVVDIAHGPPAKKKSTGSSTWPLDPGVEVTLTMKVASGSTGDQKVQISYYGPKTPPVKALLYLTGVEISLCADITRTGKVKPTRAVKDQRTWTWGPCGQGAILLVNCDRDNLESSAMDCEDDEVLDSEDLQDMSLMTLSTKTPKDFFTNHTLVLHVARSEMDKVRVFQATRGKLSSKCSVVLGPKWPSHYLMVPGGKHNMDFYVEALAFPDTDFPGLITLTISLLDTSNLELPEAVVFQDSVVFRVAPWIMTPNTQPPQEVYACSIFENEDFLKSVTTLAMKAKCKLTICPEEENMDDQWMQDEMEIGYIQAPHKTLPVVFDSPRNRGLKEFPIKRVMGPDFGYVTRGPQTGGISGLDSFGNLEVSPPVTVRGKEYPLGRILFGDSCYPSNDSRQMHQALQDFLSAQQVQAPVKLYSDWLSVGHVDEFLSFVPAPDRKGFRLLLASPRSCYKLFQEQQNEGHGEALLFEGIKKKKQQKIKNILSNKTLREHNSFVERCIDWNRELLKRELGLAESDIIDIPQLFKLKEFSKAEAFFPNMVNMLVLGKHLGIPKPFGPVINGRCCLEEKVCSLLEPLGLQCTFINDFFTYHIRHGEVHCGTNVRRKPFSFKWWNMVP
Nature of the test: In vitro PAD4 BAEE biochemical assay. To be noted: BAEE substrate 3 mM, 5 nM PAD4, 2 mM calcium chloride; geometric mean of multiple experiments. The method in brief:
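Ammonia produced by BAEE deimination (3 mM substrate, 2 h, 25 °C) was read as fluorescent isoindole after o-phthalaldehyde/DTT derivatization, ex 405 nm/em 535 nm. Human PAD4 at 5 nM final, 2 mM calcium, pH 7.6 MOPS; compound preincubated 30 min. IC50s, normalized to BB-Cl-Amidine and DMSO controls, were geometric-mean averaged.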
Regarding `C[C@H]1NC(=O)[C@@H]2C[C@H]2CCCCCn2c(-c3nc4cc(C(=O)N5CC[C@@H](OC(F)F)[C@@H](N)C5)cc5c4n3CCO5)cc3ccc1nc32` [Example 734, (2~{R},5~{R},7~{R})-14-[6-[(3~{S},4~{R})-3-amino-4-(difluoromethoxy)piperidine-1-carbonyl]-9-oxa-1,3-diazatricyclo[6.3.1.0^{4,12}]dodeca-2,4,6,8(12)-tetraen-2-yl]-2-methyl-3,13,19-triazatetracyclo[11.5.2.0^ {5,7}.0^{16,20}]icosa-1(19), 14,16(20),17-tetraen-4-one], the IC50 was 185 nM.
As to `COc1cc(C(=O)N2CC[C@@H](OC)[C@@H](N)C2)cc2nc(-c3cc4ccc5nc4n3CCCCCc3cc4ccccc4nc3C(=O)N(C)[C@@H]5C)n(C)c12` [Example 735, (2~{R})-21-[5-[(3~{S},4~ {R})-3-amino-4-methoxy-piperidine-1-carbonyl]-7-methoxy-1-methyl-benzimidazol-2-yl]-2,3-dimethyl-3,6,20,26-tetrazapentacyclo[18.5.2.0^ {5,14).0^{7,12}.0^ {23,27}]heptacosa-1(26),5(14),6,8,10,12,21,23(27), 24-nonaen-4-one], the half-maximal inhibitory concentration (IC50) is 143 nM.
On to `COc1cc(C(=O)N2CC[C@@H](OC(F)F)[C@@H](N)C2)cc2nc(-c3cc4ccc5nc4n3CCCCCc3cc4ccccc4nc3C(=O)N(C)[C@@H]5C)n(C)c12` [Example 736, (2~{R})-21-[5-[(3~{S},4~{R})-3-amino-4-(difluoromethoxy)piperidine-1-carbonyl]-7-methoxy-1-methyl-benzimidazol-2-yl]-2,3-dimethyl-3,6,20,26-tetrazapentacyclo[18.5.2.0^ {5,14}.0^{7,12}.0^{23,27}] heptacosa-1(26),5(14), 6,8,10,12,21,23(27),24-nonaen-4-one], for which the IC50 was found to be 304 nM.
As for `CO[C@@H]1CCN(C(=O)c2cc(F)c3c(c2)nc(-c2cc4ccc5nc4n2CC(F)(F)CCC[C@@H]2C[C@H]2C(=O)N[C@@H]5C)n3C)C[C@@H]1N` [Example 738, (2~{R},5~{R},7~{R})-14-[5-[(3~{S},4~{R})-3-amino-4-methoxy-piperidine-1-carbonyl]-7-fluoro-1-methyl-benzimidazol-2-yl]-11,11-difluoro-2-methyl-3,13,19-triazatetracyclo[11.5.2.0^ {5,7}.0^{16,20}] icosa-1(19),14,16(20), 17-tetraen-4-one], the figure is 48 nM.
For the compound `CO[C@@H]1CCN(C(=O)c2cc(F)c3c(c2)nc(-c2cc4ccc5nc4n2CC(F)(F)/C=C/C[C@@H]2C[C@H]2C(=O)N[C@@H]5C)n3C)C[C@@H]1N` [Example 739], the IC50 was 62 nM.
As for `CO[C@@H]1CCN(C(=O)c2cc(F)c3c(c2)nc(-c2cc4ccc5nc4n2CCCCCc2nc(Cl)ccc2C(=O)N[C@@H]5C)n3C)C[C@@H]1N` [Example 740, (2~{R})-17-[5-[(3~{S},4~ {R})-3-amino-4-methoxy-piperidine-1-carbonyl]-7-fluoro-1-methyl-benzimidazol-2-yl]-8-chloro-2-methyl-3,9,16,22-tetrazatetracyclo [14.5.2.0^{5,10}.0^{19,23}] tricosa-1(22),5(10),6,8,17,19(23),20-heptaen-4-one], the figure is 30 nM; as for `C[C@@H]1[C@H](N)CCCN1C(=O)c1cc(F)c2c(c1)nc(-c1cc3ccc4nc3n1CCCCCc1nc(Cl)ccc1C(=O)N[C@@H]4C)n2C` [Example 741, (2~{R})-17-[5-[(2~{R},3~{R})-3-amino-2-methyl-piperidine-1-carbonyl]-7-fluoro-1-methyl-benzimidazol-2-yl]-8-chloro-2-methyl-3,9,16,22-tetrazatetracyclo[14.5.2.0^ {5,10}.0^{19,23}]tricosa-1(22),5(10),6,8,17,19(23),20-heptaen-4-one], 33 nM; as for `CO[C@@H]1CCN(C(=O)c2cc(F)c3c(c2)nc(-c2cc4ccc5nc4n2CC(F)(F)/C=C/C[C@@H]2C[C@H]2C(=O)N[C@@H]5C)n3C2CC2)C[C@@H]1N` [Example 742, (2~{R},5~{R},7~{R},9~{E})-14-[5-[(3~{S},4~{R})-3-amino-4-methoxy-piperidine-1-carbonyl]-1-cyclopropyl-7-fluoro-benzimidazol-2-yl]-11,11-difluoro-2-methyl-3,13,19-triazatetracyclo[11.5.2.0^ {5,7}.0^{16,20}]icosa-1(19), 9,14,16(20),17-pentaen-4-one], 58 nM.
For `CO[C@@H]1CCN(C(=O)c2cc(F)c3c(c2)nc(-c2cc4ccc5nc4n2CCCCCc2cc(Cl)ncc2C(=O)N[C@@H]5C)n3C)C[C@@H]1N` [Example 744, (2~{R})-17-[5-[(3~{S},4~ {R})-3-amino-4-methoxy-piperidine-1-carbonyl]-7-fluoro-1-methyl-benzimidazol-2-yl]-8-chloro-2-methyl-3,7,16,22-tetrazatetracyclo [14.5.2.0^{5,10).0^{19,23}] tricosa-1(22),5(10),6,8,17,19(23), 20-heptaen-4-one], the IC50 was determined as 96 nM.
In the case of `CO[C@@H]1CCN(C(=O)c2cc(F)c3c(c2)nc(-c2cc4ccc5nc4n2CC(F)(F)CCC[C@@H]2C[C@H]2C(=O)N[C@@H]5C)n3C2C[C@H]2F)C[C@@H]1N` (stereo partly shown) [Example 745, (2~{R},5~{R},7~{R})-14-[5-[(3~{S},4~{R})-3-amino-4-methoxy-piperidine-1-carbonyl]-7-fluoro-1-[(1~{S},2~{R})-2-fluorocyclopropyl]benzimidazol-2-yl]-11,11-difluoro-2-methyl-3,13,19-triazatetracyclo [11.5.2.0^{5,7}.0^{16,20}]icosa-1(19),14,16(20),17-tetraen-4-one], the IC50 stood at 22 nM.
Regarding `CO[C@@H]1CCN(C(=O)c2cc(F)c3c(c2)nc(-c2cc4ccc5nc4n2CC(F)(F)CCC[C@@H]2C[C@H]2C(=O)N[C@@H]5C)n3[C@@H]2C[C@@H]2F)C[C@@H]1N` [Example 746, (2~{R},5~{R},7~{R})-14-[5-[(3~{S),4~{R})-3-amino-4-methoxy-piperidine-1-carbonyl]-7-fluoro-1-[(1~{R},2~{S})-2-fluorocyclopropyl]benzimidazol-2-yl]-11,11-difluoro-2-methyl-3,13,19-triazatetracyclo [11.5.2.0^{5,7}.0^{16,20}] icosa-1(19),14,16(20), 17-tetraen-4-one], the IC50 is 25 nM.
Take `C[C@@H]1[C@H](N)CCCN1C(=O)c1cc(F)c2c(c1)nc(-c1cc3ccc4nc3n1CC(F)(F)CCC[C@@H]1C[C@H]1C(=O)N[C@@H]4C)n2[C@@H]1C[C@@H]1F` [Example 747, (2~{R},5~{R},7~{R})-14-[5-[(2~{R},3~{R})-3-amino-2-methyl-piperidine-1-carbonyl]-7-fluoro-1-[(1~{R},2~{S})-2-fluorocyclopropyl]benzimidazol-2-yl]-11,11-difluoro-2-methyl-3,13,19-triazatetracyclo [11.5.2.0^{5,7}.0^{16,20}] icosa-1(19),14,16(20),17-tetraen-4-one]: the IC50 was 10 nM.
`C[C@@H]1[C@H](N)CCCN1C(=O)c1cc(F)c2c(c1)nc(-c1cc3ccc4nc3n1CCCCCc1ncc3ccccc3c1C(=O)N[C@@H]4C)n2C1CC1` [Example 748, (2~{R})-21-[5-[(2~{R},3~ {R})-3-amino-2-methyl-piperidine-1-carbonyl]-1-cyclopropyl-7-fluoro-benzimidazol-2-yl]-2-methyl-3,13,20,26-tetrazapentacyclo[18.5.2.0^ {5,14}.0^{6,11}.0^{23,27}] heptacosa-1(26),5(14),6(11), 7,9,12,21,23(27),24-nonaen-4-one]: the IC50 came to 25 nM.
